Square brackets hold non-standard residues; d marks the D form. Ends that are not written are not given here. hArg = N=C(N)NCCCC[C@H](N)C(=O)O; Aib = CC(C)(N)C(=O)O
Tests used:
human PTH receptor = biological target: T1, human PTH receptor (Homo sapiens, UniProt Q03431); experiment: cAMP in HRKRK-B7 cells EC50 (nM)
T1 construct: expressed in transfected cells
Text: Table printed on a drawing sheet, Figure 25
Head of the field: cAMP in HRKRK-B7 cells EC50 (nM)
First copying reader's note: The column head prints the cell line as HRKRK-B7 while the title prints HKRK-B7.

[1] = biological target: hPTH1R (RG form of the human PTH receptor); experiment: RG memb: hPTH1R+dnGS *M-PTH(1-15)
[2] = tested on: PTHR-CFPIC3/YFPCT (PTHR-cam); experiment: FRET analysis of ligand binding/receptor activation in HEK-293 cells; assay type: cell-based, human
Text: HEK-293 cells stably transfected with a PTHR construct (PTHR-cam) containing cyan fluorescent protein (CFP) in the third intracellular loop and yellow fluorescent protein (YFP) in the carboxy-terminal tail, were used to assess the kinetics of ligand binding to, and dissociation from the PTHR. With PTHR-cam, excitation of the CFP with ultraviolet light (λexc=436 nm) produces an intramolecular FRET to the YFP, which is observable as an increase in light emission from YFP (λemm=535 nm) and a decrease in light emission from CFP λemm=480 nm). This FRET signal occurs in the ground-state receptor and decreases upon agonist binding. […] Data are from a single experiment, and identical results were obtained in at least three others.
The approach used exploits an intramolecular FRET signal that occurs in a human PTHR construct, PTHR-CFPIC3/YFPCT (formerly called PTHR-cam). This construct contains cyan-fluorescent protein (CFP) in the third intracellular loop and yellow-fluorescent protein (YFP) in the carboxy-terminal tail. A FRET signal is produced by PTHR-CFPIC3/YFPCT in the basal state, and this signal diminishes upon agonist binding, likely due to conformational change that occurs upon activation.
HEK-293 cells stably expressing HEK-PTHR-CFPIC3/YFPCT (previously called HEK-PTHR-Cam cells (Vilardaga et al., Nat. Biotechnol. 21:807-812 (2003)) were grown on glass coverslips and processed for FRET analysis as described. With these cells, excitation of the CFP (donor) in PTHR-CFPIC3/YFPCT with ultraviolet light (λmax.ex.=436 nm; λmax.em.=480 nm) produces an intramolecular FRET to the YFP (acceptor), resulting in emission from that YFP (λmax.ex.=480 nm, λmax.em.=535 nm). This FRET response is observable as a decrease in intensity of CFP light emission at 480 nm, and an increase in intensity of YFP light emission at 535 nm. The FRET signal is produced by PTHR-CFPIC3/YFPCT in the ground-state receptor and decreases upon binding of an agonist. […] Fluorescence was monitored using a Zeiss inverted microscope equipped with a 100× objective and a dual emission photometric system (Til Photonics), coupled to an avalanche photodiode detection system and an analog-digital converter (Axon Instruments). The FRET signal detected upon excitation at 436 nm was calculated as the normalized FRET ratio: FYFP(535 nm)/FCFP(480 nm) where FYFP(535 nm) is the emission at 535 nm, corrected for spillover of the CFP signal into the YFP channel, and FCFP(480 nm) is the emission at 480 nm, corrected for spillover (minimal) of the YFP emission into the CFP channel. Changes in fluorescence emissions due to photo-bleaching were subtracted.

T1 sequence (Q03431 27-593 limits assumed): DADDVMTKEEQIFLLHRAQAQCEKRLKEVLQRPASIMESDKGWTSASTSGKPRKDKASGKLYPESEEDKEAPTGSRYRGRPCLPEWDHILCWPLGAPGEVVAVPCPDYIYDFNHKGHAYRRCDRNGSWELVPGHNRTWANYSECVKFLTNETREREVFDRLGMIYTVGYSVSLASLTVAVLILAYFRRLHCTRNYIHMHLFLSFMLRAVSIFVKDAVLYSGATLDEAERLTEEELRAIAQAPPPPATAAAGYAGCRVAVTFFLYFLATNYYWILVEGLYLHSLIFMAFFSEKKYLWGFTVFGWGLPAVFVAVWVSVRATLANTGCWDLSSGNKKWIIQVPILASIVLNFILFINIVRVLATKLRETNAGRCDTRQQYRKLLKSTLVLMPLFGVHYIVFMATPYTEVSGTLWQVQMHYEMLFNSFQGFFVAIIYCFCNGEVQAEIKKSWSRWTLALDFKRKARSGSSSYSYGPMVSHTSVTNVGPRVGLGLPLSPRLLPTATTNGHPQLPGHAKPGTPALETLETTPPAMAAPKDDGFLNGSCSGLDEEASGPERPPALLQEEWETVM

| Molecule | EC50 (human PTH receptor) [pM] | IC50 [1] [pM] | FRET signal after exchange to ligand-free buffer, in words [2] | reduction (magnitude) of FRET signal [2] [%] |
| --- | --- | --- | --- | --- |
| CC[C@H](C)[C@H](NC(=O)[C@H](CCC(=O)O)NC(=O)[C@H](C)NC(=O)[C@@H](NC(=O)[C@H](Cc1c[nH]cn1)NC(=O)[C@@H](NC(=O)[C@H](CC(=O)O)NC(=O)[C@H](CCC(N)=O)NC(=O)[C@H](CC(C)C)NC(=O)[C@H](CCCCN)NC(=O)[C@H](CCCCN)NC(=O)[C@H](CCCNC(=N)N)NC(=O)[C@H](CC(C)C)NC(=O)[C@H](Cc1c[nH]c2ccccc12)NC(=O)[C@H](CCC(=O)O)NC(=O)[C@@H](NC(=O)[C@H](CCCNC(=N)N)NC(=O)[C@H](CCC(=O)O)NC(=O)[C@H](CCSC)NC(=O)[C@H](CO)NC(=O)[C@H](CC(N)=O)NC(=O)[C@H](CC(C)C)NC(=O)[C@H](Cc1c[nH]cn1)NC(=O)[C@H](CCCCN)NC(=O)CNC(=O)[C@H](CC(C)C)NC(=O)[C@H](CC(N)=O)NC(=O)[C@H](Cc1c[nH]cn1)NC(=O)[C@H](CCSC)NC(=O)[C@H](CC(C)C)NC(=O)[C@H](CCC(N)=O)NC(=O)[C@@H](NC(=O)[C@H](CCC(=O)O)NC(=O)[C@H](CO)NC(=O)[C@@H](NC(=O)[C@@H](N)CO)C(C)C)[C@@H](C)CC)C(C)C)[C@@H](C)CC)[C@@H](C)O)C(=O)O [PTH(1-30)/PTHrP(31-36)] | 780 | 170 | – | – |
| CC[C@H](C)[C@H](NC(=O)[C@H](CCC(=O)O)NC(=O)[C@H](CO)NC(=O)[C@@H](NC(=O)[C@@H](N)CO)C(C)C)C(=O)N[C@@H](CCC(N)=O)C(=O)N[C@@H](CC(C)C)C(=O)N[C@@H](CCSC)C(=O)N[C@@H](Cc1c[nH]cn1)C(=O)N[C@@H](CC(N)=O)C(=O)N[C@@H](CC(C)C)C(=O)NCC(=O)N[C@@H](CCCCN)C(=O)N[C@@H](Cc1c[nH]cn1)C(=O)N[C@@H](CC(C)C)C(=O)N[C@@H](CC(N)=O)C(=O)N[C@@H](CO)C(=O)N[C@@H](CCSC)C(=O)N[C@@H](CCC(=O)O)C(=O)N[C@@H](CCCNC(=N)N)C(=O)N[C@H](C(=O)N[C@@H](CCC(=O)O)C(=O)N[C@@H](Cc1c[nH]c2ccccc12)C(=O)N[C@@H](CC(C)C)C(=O)N[C@@H](CCCNC(=N)N)C(=O)N[C@@H](CCCCN)C(=O)N[C@@H](CCCCN)C(=O)N[C@@H](CC(C)C)C(=O)N[C@@H](CCC(N)=O)C(=O)N[C@@H](CC(=O)O)C(=O)N[C@H](C(=O)N[C@@H](Cc1c[nH]cn1)C(=O)N[C@@H](CC(N)=O)C(=O)N[C@@H](Cc1ccccc1)C(=O)O)C(C)C)C(C)C [hPTH(1-34), Human parathyroid hormone (1-34)] | – | – | remained suppressed | ~13 |
| [Aib^1,3,Gln^10,Har^11,Ala^12,Trp^14]rPTH(1-14)NH2 ([Aib]V[Aib]EIQLMHQ[hArg]AKW-NH2; N-terminus assumed; SMILES CC[C@H](C)[C@H](NC(=O)[C@H](CCC(=O)O)NC(=O)C(C)(C)NC(=O)[C@@H](NC(=O)C(C)(C)N)C(C)C)C(=O)N[C@@H](CCC(N)=O)C(=O)N[C@@H](CC(C)C)C(=O)N[C@@H](CCSC)C(=O)N[C@@H](Cc1c[nH]cn1)C(=O)N[C@@H](CCC(N)=O)C(=O)N[C@@H](CCCCNC(=N)N)C(=O)N[C@@H](C)C(=O)N[C@@H](CCCCN)C(=O)N[C@@H](Cc1c[nH]c2ccccc12)C(N)=O) [[Aib^1,3,M]PTH(1-14)] | – | – | – | ~5 |

— patent US9057727B2, “Screening methods using G-protein coupled receptors and related compositions” (The General Hospital Corporation, priority 2007, dated 2015)
